Measurements reported in patent US20210213010A1, “TLR7/8 AGONISTS AND LIPOSOME COMPOSITIONS” (Torque Therapeutics, Inc., priority 2018, published 2021).
“Also recorded” adds a separate entry of the source. Each block holds one compound with its values, some of them ahead of it.

Legend:
[1] = test system: RAW Blue cells; assay: Potency of TLR7 agonist compound library in RAW Blue TLR reporter cells; type: cell-based; settings: fold more potent
Description: A general synthesis scheme is shown in FIG. 1A according to the procedure by Wu et al. Immunotherapeutic activity of a conjugate of a Toll-like receptor 7 ligand. Proc. Natl. Acad. Sci. 104, 3990-3995 (2007), with some modifications and in good yields. Final derivatization using standard amide bond formation or reductive amination conditions, gave the desired library of 22 compounds divided into two sets (set 1, 1a-1j and set 2, 2a-2j). Next it was evaluated if the synthesized compounds had retained their activity upon derivatization. As benchmarks, the known TLR agonists Gardiquimod (Gdq, TLR7) and Resiquimod (R848, TLR7/8) were used.

[2] = Cryo-TEM of remote loaded liposomes (intraliposomal precipitation); type: physicochemical; settings: remote loaded liposomes, Example 75
Description: CryoTEM samples of 3 μL of liposome solution was placed on a lacy carbon 300 mesh copper TEM grid, blotted and plunge frozen in liquid ethane using a FEI Vitrobot Mark IV. Samples were imaged using a FEI Tecnai G2 20 TWIN transmission electron microscope operated at 200 keV in low dose mode with a FEI High-Sensitive (HS) 4 k×4 k Eagle camera.

[3] = test system: B16-F10 tumor; assay: In vivo immune profiling by flow cytometry in B16-F10 tumor bearing mice (Example 87); design: species or system mouse
Description: Spleens and lymphnodes were harvested from PMEL mice (B6. Cg-Thy1^a/Cy Tg(TcraTcrb)8Rest/J, Jackson Labs) and CD8 T cells purified by Mylteni MACS T cell separation kit. PMEL cells were stimulated and expanded on anti-CD3/CD28 coated plates with mouse IL2/IL7/IL21 cytokines, harvested and loaded with liposomes for evaluation in vivo. PMEL cells at 50×10^6/mL were incubated with liposomes at 10 mM lipid concentration for 60 minutes at 37 C, washed twice and formulated in HBSS prior to injection into the mice. Briefly, 100 ul of 1×10^6 B16-F10 cells formulated in HBSS were injected SubQ (SQ) and grown for 10 days prior to treatment. 1 day prior to treatment, 4 mg/mouse of cyclophosphamide (CPX) was injected intraperitoneal (IP) with 200 ul at 20 mg/mL in phosphate buffered saline (PBS). There were 10 mice used per group and all treatments were injected intravenous (IV) via tail vein injection, the groups were as follows: • HBSS alone (single dose) • 20×10^6 PMEL cells/mouse (single dose) • 20×10^6 PMEL cells/mouse backpacked with 1.5% Arg3-Chol, 10% DSTAP, 35% cholesterol, 0.5% DSPE-PEG, DSPC, pH gradient loaded as previously described with KRJ2-110 (single dose) • 20×10^6 PMEL cells/mouse followed by 2 mg/kg KRJ2-110 systemically on day 0 (small molecule delivered 1 hr after cell dose)
Blood was sampled at 24 hr, 4 days and 7 days for plasma isolation and cytokine/chemokine characterization by Luminex. Tissues and organs were harvested on day 4 and 7 for analysis by flow cytometry and Luminex.

[4] = test system: B16-F10 tumor; assay: B16-F10 tumor model with adoptive cell transfer of PMEL cells (Example 80); type: in vivo, mouse; settings: for Weight of tumor bearing mice: versus HBSS, PMEL alone and PMEL loaded with Gdq liposomes
Description: Spleens and lymphnodes were harvested from PMEL mice (B6. Cg-Thy1^a/Cy Tg(TcraTcrb)8Rest/J, Jackson Labs) and CD8 T cells purified by Mylteni MACS T cell separation kit. PMEL cells were stimulated and expanded on anti-CD3/CD28 coated plates with mouse IL2/IL7/IL21 cytokines, harvested and loaded with liposomes for evaluation in vivo. PMEL cells at 50×10^6/mL were incubated with liposomes at 10 mM lipid concentration for 60 minutes at 37 C, washed twice and formulated in HBSS prior to injection into the mice. In vivo study details show below. Briefly, 100 ul of 0.5×10^6 B16-F10 cells formulated in HBSS were injected SubQ (SQ) or intra-dermal (ID) and grown for 9 days prior to treatment. 1 day prior to treatment, 4 mg/mouse of cyclophosphamide (CPX) was injected intraperitoneal (IP) with 200 ul at 20 mg/mL in phosphate buffered saline (PBS). There were 10 mice used per group and all treatments were injected intravenous (IV) via tail vein injection, the groups were as follows: • HBSS alone (single dose) • 20×10^6 PMEL cells/mouse (single dose) • 20×10^6 PMEL cells/mouse backpacked with 2.5 antiCD45 Ab/liposome, 10% DOTAP, 35% cholersterol, 0.6% DSPE-PEG, POPC, pH gradient loaded as previously described with Gardiquimod (˜200 nmol Gardiquimod/mouse, single dose) • 20×10^6 PMEL cells/mouse followed by 4 mg/kg Gardiquimod systemically on day 0 (treatment day, day 6, day 13, day 25 • 20×10^6 PMEL cells/mouse followed by 2 mg/kg KRJ2-110 systemically on day 0 (treatment day), day 6, day 13, day 25

[5] = Cytokine/chemokine release kinetics in blood of non-tumor bearing B6D2F1/J mice (Luminex); type: in vivo, mouse; settings: single dose; 4 mg/kg Gdq or 2 mg/kg KRJ2-110 systemic, or loaded PMEL cells; 0-24 hr
Description: Spleens and lymphnodes were harvested from PMEL mice (B6. Cg-Thy1^a/Cy Tg(TcraTcrb)8Rest/J, Jackson Labs) and CD8 T cells purified by Mylteni MACS T cell separation kit. PMEL cells were stimulated and expanded on anti-CD3/CD28 coated plates with mouse IL2/IL7/IL21 cytokines and harvested for use. The cytokine/chemokine release profile in non-tumor bearing B6D2F1/J mice (Jackson Labs) was evaluated by injecting: • 20×10^6 PMEL cells alone, 20×10^6 PMEL cells loaded with 2.5 ant-CD45 Ab/liposome, 10% DOTAP, 35% cholesterol, 0.6% DSPE-PEG, POPC liposomes Gardiquimod pH gradient loaded as previously described (˜200 nmol gardiquimod, single dose) • 4 mg/kg Gdq systemic (no PMEL, single dose) • 2 mg/kg KRJ2-110 systemic (no PMEL, single dose)
Blood was drawn at 0, 0.25, 0.5, 1, 2, 4, 6, 10 and 24 hr and plasma was recovered for cytokine/chemokine quantitation using a Luminex kit. […] IP10 and TNFa are commonly used biomarkers for TLR7 agonists in human studies indicating these may be useful biomarkers in clinical studies for T cells loaded with TLR7 agonists.

[6] = test system: RAW-Blue cells; assay: NF-κB induction in RAW-Blue reporter cells (RAW 264.7 macrophages, SEAP); type: cell-based; settings: RAW-Blue; sigmoidal 4PL fitting, 24 h
Summary of the method: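 RAW 264.7 macrophages with NF-κB-inducible SEAP, 100×10^3 cells/well, exposed to compound dilutions (from DMSO stocks in PBS) for 24 h at 37 °C, triplicate. Supernatant SEAP read with QUANTI-Blue at 640 nm after 3–6 h, normalized to DMSO blank; EC50 from 4PL fits.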

[7] = amine in conjugation with the aromatic system; cited from earlier work
[8] = test system: whole human blood; assay: IL-12p40 cytokine expression in stimulated whole human blood (ELISA); type: cell-based; settings: drug/lipid ratio 0.1
Description: (§1) This example describes the general procedure used to assess the level of cytokine IL-6 and IL-12p40 expressions upon stimuli of whole human blood with small molecules or small molecules in liposomal formulations F1 and F2. 10 mM DMSO solutions of the small molecules were diluted in RPMI media (RPMI-1640, Sigma Aldrich) with 1% penicillin/streptomycin (p/s). […], of each dilution was transferred to Nunc™ 96-Well Polystyrene Conical Bottom MicroWell™ Plates in duplicates. Blood was drawn from two human donors, diluted in RPMI with 1% p/s and added to each well to reach final concentrations of 10 μM, 1 μM, and 0.1 μM of the small molecules. The plates were incubated at 37° C. in a cell incubator for 24h. The plates were then spun down in a plate centrifuge with 3200 revolutions per minute (rpm) for 10 min before 50 uL of the supernatant was transferred to new 96-well plates. The supernatant samples were subsequently stored at −80° C. until the day of cytokine measurements.
(§2) The level of cytokine expression was measured using either an IL-6 ELISA Kit (RnDSystems, cat #DY206) for IL-6, or an IL-12p40 ELISA Kit (RnDSystems, cat #DY1240) according to the manufacturer's protocols. This general procedure was used to generate the examples 24-33.

[9] = test system: whole human blood; assay: IL-6 cytokine expression in stimulated whole human blood (ELISA); type: cell-based
Description: as §1, §2

[10] = Remote loading efficiency of small molecules into liposomes (PD-10 size exclusion, HPLC); type: physicochemical; settings: for Remote loading efficiency 1 h (%): drug/lipid ratio 0.10, 1 h; for Remote loading efficiency 3 h (%): drug/lipid ratio 0.10, 3 h
Summary of the method: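 A lyophilized small-molecule powder (modified TLR agonist) was combined with liposome formulation at the desired drug/lipid ratio and stirred at elevated temperature. At 1 h and 3 h, 100 μL of mixture plus 900 μL buffer (25 mM HEPES, 10 vol % sucrose, pH 7.4) went onto a PD-10 size exclusion column. Ten 1 mL fractions were collected, and HPLC quantified compound in the liposome fractions as a percentage of the amount applied.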

Crystallization within liposomes (Cryo-TEM) [2]: crystallizes inside the liposomes
Weight of tumor bearing mice [4]: more substantial weight loss
SMILES: COCCOc1nc(N)c2nc(O)n(Cc3ccc(CN)cc3)c2n1 [KRJ2-110, 6-amino-9-(4-(aminomethyl)benzyl)-2-(2-methoxyethoxy)-9H-purin-8-ol]
In vitro potency in a RAW cell assay relative to Gardiquimod [1]: ~10 ×
Activation of PMEL T cells in LN ([3]; 4 and 7 days after ACT): Increases activation of PMEL T cells in LN
Exhaustion of PMEL cells (PD1+/LAG3+) ([3]; 4 and 7 days after ACT): Slightly increases exhaustion
MHCII expression in the tumor ([3]; 4 and 7 days after ACT): Increases MHCII expression in the tumor
Monocytic and Granulocytic MDSC density in the tumor ([3]; 7 days after ACT): Does not markedly affect MDSC
Abundance of cDC1 and pDC in the tumor ([3]; after ACT): Transiently increases the abundance of cDC1 and pDC
Proliferation of PMEL T cells (Ki67) ([3]; blood, spleen and tumor, 4 days after ACT): Virtually no effect on PMEL T cell proliferation
B16-F10 tumor growth after adoptive cell transfer ([4]; PMEL cells plus 2 mg/kg KRJ2-110 or 4 mg/kg Gardiquimod systemically, or liposome loaded PMEL): more efficacious
Proinflammatory cytokines such as IFNg, IL12 in blood [5]: significant increase in proinflammatory cytokines

EC50 [6]: 150 nM
SMILES: CCOCc1nc2c(N)nc3ccccc3c2n1CC(C)(C)O [R848, Resiquimod, reference compound]
pKa of the conjugate acid [7]: approximately 4

EC50 [6]: 1670 nM
Weight of tumor bearing mice [4]: more substantial weight loss
Remote loading efficiency 1 h (%) ([10]; formulation F1, HEPES): 89%
Remote loading efficiency 3 h (%) ([10]; formulation F1, HEPES): 92%
Remote loading efficiency 1 h (%) ([10]; formulation F2, HEPES): 89%
Remote loading efficiency 3 h (%) ([10]; formulation F2, HEPES): 92%
SMILES: CCNCc1nc2c(N)nc3ccccc3c2n1CC(C)(C)O [Gardiquimod, reference compound]
Expression of IL-12p40 upon stimulation of whole human blood ([8]; remote loaded in formulation F1, HEPES): none of the small molecules Gardiquimod, MK087, MK088, and MK089 were capable of inducing expression of IL-12p40
Expression of IL-12p40 upon stimulation of whole human blood ([8]; remote loaded in formulation F2, HEPES): capable of inducing expression of IL-12p40 in one donor at 10 μM
Expression of IL-6 upon stimulation of whole human blood ([9]; free small molecule, 10, 1, 0.1 μM, 24 h, two donors): induced expression of IL-6 at 10 μM in donor 2
Expression of IL-6 upon stimulation of whole human blood ([9]; remote loaded in formulation F1, HEPES, drug/lipid ratio 0.1): No induction of IL-6 expression
Expression of IL-6 upon stimulation of whole human blood ([9]; remote loaded in formulation F2, HEPES, drug/lipid ratio 0.1): capable of inducing expression of IL-6 at 10 μM; also recorded: capable of inducing expression of IL-6 in both donors; also recorded: the most potent
Proinflammatory cytokines such as IFNg, IL12 in blood [5]: significant increase in proinflammatory cytokines
